We go through 36 compounds from patent US8084456B2, “Pyrazine-based tubulin inhibitors” (YM Biosciences Australia Pty Ltd, priority 2002, dated 2011).

Common to all, as to format: cell-based
The target of one test is TelJak3 (Homo sapiens, UniProt P52333). In words: Cellular growth assay (MTT), BaF3 TEL/JAK3 cells. The following applies: 40 hr incubation, read-out: TelJak3 (inhibition of 50% of cellular growth).
The subject of test [1] is K562 (Chronic Myeloid Leukemia) cells. In words: Cellular growth assay (MTT), K562. Particulars: Homo sapiens, 40 hr incubation, read-out: K562 (inhibition of 50% of cellular growth). How it is done: (§1) K562 (Chronic Myeloid Leukemia), PC3 (Prostate Cancer), and DU145 (Prostate Cancer) were obtained from the American Type Culture Collection (ATCC). K562 was grown in RPMI, with 10% FBS with Glutamx added. DU145 cells were cultured in DMED, with 10% FBS and Glutamx and MEM non-essential amino acids added. PC3 cells were grown in F12K medium, with 10% FBS and Glutamx and MEM non-essential amino acids added. All cells were grown at 37° C. in 5% CO2.

The target of another test is TelJak2 (Homo sapiens, UniProt O60674). In words: Cellular growth assay (MTT), BaF3 TEL/JAK2 cells. Particulars: 40 hr incubation, read-out: TelJak2 (inhibition of 50% of cellular growth).
Test [2] has as its system DU145 (Prostate Cancer) cells. Briefly: Cellular growth assay (MTT), DU145. Particulars: Homo sapiens, DU-145, 40 hr incubation, read-out: DU145 (inhibition of 50% of cellular growth). How it is done: as §1
Test [3] concerns PC3 (Prostate Cancer) cells. In words: Cellular growth assay (MTT), PC3. Particulars: Homo sapiens, PC-3, 40 hr incubation, read-out: PC3 (inhibition of 50% of cellular growth). The protocol: as §1

SMILES strings stand for the structures.

Sequence of TelJak2 (O60674 with tags, fused parts or gaps): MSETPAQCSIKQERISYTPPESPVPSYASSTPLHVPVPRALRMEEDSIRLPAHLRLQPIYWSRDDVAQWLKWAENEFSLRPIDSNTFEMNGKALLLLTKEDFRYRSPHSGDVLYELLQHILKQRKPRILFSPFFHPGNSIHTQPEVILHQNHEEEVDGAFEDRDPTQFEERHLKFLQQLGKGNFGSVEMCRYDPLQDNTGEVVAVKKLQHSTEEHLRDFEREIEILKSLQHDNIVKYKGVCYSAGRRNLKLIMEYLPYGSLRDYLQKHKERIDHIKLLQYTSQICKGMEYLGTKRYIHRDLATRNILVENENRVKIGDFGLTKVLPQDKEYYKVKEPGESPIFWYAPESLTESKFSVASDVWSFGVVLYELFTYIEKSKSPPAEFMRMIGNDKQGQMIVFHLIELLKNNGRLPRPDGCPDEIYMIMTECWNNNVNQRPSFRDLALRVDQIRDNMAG
Sequence of TelJak3 (P52333 with tags, fused parts or gaps): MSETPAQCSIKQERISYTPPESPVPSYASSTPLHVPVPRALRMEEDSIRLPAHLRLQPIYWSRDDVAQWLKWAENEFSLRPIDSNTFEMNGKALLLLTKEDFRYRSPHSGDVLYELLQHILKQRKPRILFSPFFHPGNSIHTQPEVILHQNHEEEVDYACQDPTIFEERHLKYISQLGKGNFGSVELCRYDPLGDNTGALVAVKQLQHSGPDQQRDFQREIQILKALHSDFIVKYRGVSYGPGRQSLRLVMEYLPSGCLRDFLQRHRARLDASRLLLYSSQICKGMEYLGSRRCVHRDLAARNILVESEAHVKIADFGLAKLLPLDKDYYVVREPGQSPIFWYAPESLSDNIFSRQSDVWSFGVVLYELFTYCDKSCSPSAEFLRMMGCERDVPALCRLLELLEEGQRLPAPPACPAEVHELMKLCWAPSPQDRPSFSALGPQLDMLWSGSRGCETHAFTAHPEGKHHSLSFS

Regarding `COc1cc(-c2cncc(NC(CC(C)C)c3ccccc3)n2)ccc1O` (centres unmarked), the IC50 is not above 20 µM at TelJak3; not above 20 µM in test [1]; not above 20 µM on TelJak2; more than 20 µM in test [2]; more than 20 µM in test [3].
For `CCCC(Nc1cncc(-c2ccc(O)c(OC)c2)n1)c1ccc(O)cc1` (centres unmarked), the IC50 on TelJak3 is not above 20 µM; in test [1], more than 20 µM; at TelJak2, not above 20 µM; in test [2], more than 20 µM; in test [3], more than 20 µM.
Turning to `CCCC(Nc1cncc(-c2ccc(O)c(OC)c2)n1)c1ccc(SC)cc1` (centres unmarked), the IC50 at TelJak3 was not above 20 µM; in test [1] it was not above 20 µM; on TelJak2, not above 20 µM; in test [2], more than 20 µM; in test [3], more than 20 µM.
As for `CCCC(Nc1cncc(-c2cc(OC)c(OC)c(OC)c2)n1)c1ccccc1` (centres unmarked), the IC50 at TelJak3 is not above 20 µM; in test [1] it was not above 20 µM; at TelJak2, not above 20 µM; in test [2] it was not above 20 µM; in test [3], more than 20 µM.
Consider `CCCC(Nc1cncc(-c2cccc(OC)c2)n1)c1ccccc1` (centres unmarked), for which the IC50 on TelJak3 is not above 20 µM; in test [1] it was not above 20 µM; at TelJak2 it was not above 20 µM; in test [2] it was more than 20 µM; in test [3], more than 20 µM.
Turning to `CCCC(Nc1cncc(-c2ccc(O)c(OC)c2)n1)c1cccc(NC(C)=O)c1` (centres unmarked), the IC50 at TelJak3 is not above 20 µM; in test [1], not above 20 µM; on TelJak2, not above 20 µM; in test [2], more than 20 µM; in test [3] it was more than 20 µM.
Turning to `CCCC(Nc1cncc(-c2ccc(O)c(OC)c2)n1)c1cccc(C#N)c1` (centres unmarked), the IC50 on TelJak3 is not above 20 µM; in test [1], not above 20 µM; on TelJak2, not above 20 µM; in test [2], more than 20 µM; in test [3] it was not above 20 µM.
As for `CCCC(Nc1cncc(-c2ccc(NS(C)(=O)=O)c(OC)c2)n1)c1ccc(F)cc1` (centres unmarked), the IC50 at TelJak3 was not above 20 µM; in test [1], not above 20 µM; at TelJak2, not above 20 µM; in test [2], more than 20 µM; in test [3], not above 20 µM.
For the compound `CCCC(Nc1cncc(-c2ccc3c(c2)OCO3)n1)c1cccnc1` (centres unmarked), the IC50 at TelJak3 was not above 20 µM; in test [1], not above 20 µM; at TelJak2, not above 20 µM; in test [2] it was more than 20 µM; in test [3] it was more than 20 µM.
With `CCCC(Nc1cncc(-c2ccc(O)c(OC)c2)n1)c1cccc([C@H](O)OCCOCC)c1` (some centres unmarked), the IC50 was not above 20 µM on TelJak3; not above 20 µM in test [1]; not above 20 µM on TelJak2; more than 20 µM in test [2]; more than 20 µM in test [3].
On to `CCCOC(=O)c1cccc(C(CCC)Nc2cncc(-c3ccc(O)c(OC)c3)n2)c1` (centres unmarked), for which the IC50 on TelJak3 is not above 20 µM; in test [1] it was not above 20 µM; at TelJak2, not above 20 µM; in test [2], more than 20 µM; in test [3], not above 20 µM.
In the case of `CCCC(Nc1cncc(-c2ccc(O)c(OC)c2)n1)c1cccc(F)c1F` (centres unmarked), the IC50 was not above 20 µM at TelJak3; not above 20 µM in test [1]; not above 20 µM on TelJak2; more than 20 µM in test [2]; more than 20 µM in test [3].
For `CCCC(Nc1cncc(-c2ccc(O)c(OC)c2)n1)c1ccc(Cl)c(F)c1` (centres unmarked), the IC50 on TelJak3 is not above 20 µM; in test [1], not above 20 µM; on TelJak2 it was not above 20 µM; in test [2] it was more than 20 µM; in test [3] it was more than 20 µM.
Turning to `CCCC(Nc1cncc(-c2ccc(O)c(OCC)c2)n1)c1cccc(F)c1` (centres unmarked), the IC50 was not above 20 µM at TelJak3; not above 20 µM in test [1]; not above 20 µM on TelJak2; more than 20 µM in test [2]; not above 20 µM in test [3].
Take `CCCC(Nc1cncc(-c2ccc(O)c(OC)c2)n1)c1cccc(OC(F)(F)F)c1` (centres unmarked): the IC50 on TelJak3 is not above 20 µM; in test [1], not above 20 µM; on TelJak2, not above 20 µM; in test [2], more than 20 µM; in test [3], more than 20 µM.
As to `CCCC(Nc1nc(-c2ccc(O)c(OC)c2)cnc1N)c1cccc(F)c1` (centres unmarked), the IC50 at TelJak3 was not above 20 µM; in test [1], not above 20 µM; at TelJak2, not above 20 µM; in test [2], more than 20 µM; in test [3], more than 20 µM.
As to `CCCC(Nc1cncc(-c2ccc(O)c(OC)c2)n1)c1cc(F)ccc1F` (centres unmarked), the IC50 at TelJak3 was not above 20 µM; in test [1], not above 20 µM; at TelJak2 it was not above 20 µM; in test [2], more than 20 µM; in test [3], more than 20 µM.
With `CCCC(Nc1cncc(-c2ccc(O)c(OC)c2)n1)c1cccc(C(=O)NC)c1` (centres unmarked), the IC50 on TelJak3 was not above 20 µM; in test [1] it was not above 20 µM; on TelJak2, not above 20 µM; in test [2], more than 20 µM; in test [3] it was more than 20 µM.
Regarding `CCCC(Nc1cncc(-c2ccc(O)c(OC)c2)n1)c1cccc(C(=O)NC(C)C2CC2)c1` (centres unmarked), the IC50 at TelJak3 is not above 20 µM; in test [1], not above 20 µM; at TelJak2, not above 20 µM; in test [2] it was more than 20 µM; in test [3], more than 20 µM.
As to `CCCC(Nc1cncc(-c2ccc(O)c(OC)c2)n1)c1cccc(C(=O)NCCN(C)C)c1` (centres unmarked), the IC50 at TelJak3 is not above 20 µM; in test [1], not above 20 µM; at TelJak2, not above 20 µM; in test [2], more than 20 µM; in test [3], not above 20 µM.
On to `CCCC(Nc1cncc(-c2ccc(O)c(OC)c2)n1)c1cccc(C(=O)NCc2cccnc2)c1` (centres unmarked), for which the IC50 was not above 20 µM at TelJak3; not above 20 µM in test [1]; not above 20 µM at TelJak2; more than 20 µM in test [2]; more than 20 µM in test [3].
As for `CCCC(Nc1cncc(-c2ccc(O)c(OC)c2)n1)c1ccncc1` (centres unmarked), the IC50 is not above 20 µM at TelJak3, not above 20 µM in test [1], not above 20 µM at TelJak2 and more than 20 µM in test [2].
Turning to `CCCC(Nc1cncc(-c2ccc(O)c(OCC)c2)n1)c1cncc(C)c1` (centres unmarked), the IC50 on TelJak3 was not above 20 µM; in test [1], not above 20 µM; at TelJak2 it was not above 20 µM; in test [2], more than 20 µM; in test [3], not above 20 µM.
`CCCC(Nc1cncc(-c2ccc(NC(C)=O)c(OC)c2)n1)c1cncc(C)c1` (centres unmarked): the IC50 on TelJak3 is not above 20 µM; in test [1], not above 20 µM; at TelJak2, not above 20 µM; in test [2], not above 20 µM; in test [3], more than 20 µM.
In the case of `CCCC(Nc1cncc(-c2ccc(O)c(OCC)c2)n1)c1cccnc1` (centres unmarked), the IC50 is not above 20 µM at TelJak3; not above 20 µM in test [1]; not above 20 µM at TelJak2; more than 20 µM in test [2]; not above 20 µM in test [3].
As for `COc1cc(-c2cncc(NC(CCC3OCCO3)c3cccc(Cl)c3)n2)ccc1O` (centres unmarked), the IC50 at TelJak3 is not above 20 µM; in test [1], not above 20 µM; on TelJak2, not above 20 µM; in test [2], more than 20 µM; in test [3], more than 20 µM.
Take `CCCC(Nc1cncc(-c2cc(OC)c(O)c(OC)c2)n1)c1ccccc1` (centres unmarked): the IC50 at TelJak3 was not above 20 µM; in test [1], more than 20 µM; on TelJak2, not above 20 µM; in test [2], more than 20 µM; in test [3], more than 20 µM.
Turning to `CCCC(Nc1cncc(-c2ccc(NC(C)=O)c(OC)c2)n1)c1cccnc1` (centres unmarked), the IC50 was not above 20 µM on TelJak3; not above 20 µM in test [1]; not above 20 µM at TelJak2; more than 20 µM in test [2]; not above 20 µM in test [3].
With `CCCC(Nc1cncc(-c2ccc(N)c(OC)c2)n1)c1ccccc1` (centres unmarked), the IC50 on TelJak3 was not above 20 µM; in test [1], not above 20 µM; on TelJak2, not above 20 µM; in test [2], more than 20 µM; in test [3], more than 20 µM.
Take `CCCC(=O)Nc1ccc(-c2cncc(NC(CCC)c3cccnc3)n2)cc1OC` (centres unmarked): the IC50 (on TelJak3; in test [1]; at TelJak2; in test [3]) was not above 20 µM in each case.
For `CCC[C@H](Nc1cncc(-c2ccc(NC(C)=O)c(OC)c2)n1)c1ccccc1`, the IC50 at TelJak3 is not above 20 µM; on TelJak2, not above 20 µM; in test [3], more than 20 µM.
On to `CCN(CC)CCCC(Nc1cncc(-c2ccc(O)c(OC)c2)n1)c1ccccc1` (centres unmarked), for which the IC50 on TelJak3 was not above 20 µM; in test [1], more than 20 µM; at TelJak2, not above 20 µM; in test [2], more than 20 µM; in test [3], more than 20 µM.
Consider `CCN(CC)CCCCC(Nc1cncc(-c2ccc(O)c(OC)c2)n1)c1ccccc1` (centres unmarked), for which the IC50 on TelJak3 was not above 20 µM; in test [1], more than 20 µM; on TelJak2, not above 20 µM; in test [2], not above 20 µM; in test [3] it was more than 20 µM.
Turning to `COc1cc(-c2cncc(NC(CCCCN3CCOCC3)c3ccccc3)n2)ccc1O` (centres unmarked), the IC50 on TelJak3 is not above 20 µM; in test [1] it was more than 20 µM; on TelJak2, not above 20 µM; in test [2] it was more than 20 µM; in test [3], more than 20 µM.
For the compound `CCC[C@H](Nc1cncc(-c2ccc(NCC)c(OC)c2)n1)c1ccccc1`, the IC50 is not above 20 µM at TelJak3; not above 20 µM in test [1]; not above 20 µM on TelJak2; more than 20 µM in test [2]; not above 20 µM in test [3].
For `COc1cc(-c2cncc(NC(C)c3ccccn3)n2)ccc1O` (centres unmarked), the IC50 at TelJak3 was not above 20 µM; in test [1] it was more than 20 µM; at TelJak2, not above 20 µM; in test [2], more than 20 µM; in test [3] it was more than 20 µM.
